Data reported in patent US11542475B2, “3D microphysiologic system” (Northwestern University, priority 2014, dated 2023).
Like-named read-outs stand apart in the source and are kept apart here.

Assays:
[1] = system: human fallopian fimbriae FTE; experiment: 3D human fimbriae culture: FTE proliferation by BrdU labeling; assay type: cell-based; conditions: insulin 5 μg/ml (ITS), H2O2 1 mM, E2 10 nM, n=6
Description: (§1) Tissues were micro-dissected in alpha-MEM (Gibco, Carlsbad, Calif.) with 1% penicillin-streptomycin (Invitrogen, Carlsbad, Calif.). Individual fimbriae were separated into ˜50 mm^3 pieces. A portion of the tissue was fixed in 2% paraformaldehyde for use as an uncultured control. For optimization studies, fimbriae were cultured without matrix, encapsulated in 0.5% alginate, or encapsulated in 0.5% alginate with 1 mg/ml collagen and 0.1% fibronectin, as previously described for murine cultures (King et al. J Vis Exp. 2011.; herein incorporated by reference in its entirety). For subsequent treatments, 0.5% alginate encapsulated fimbriae were randomly assigned to treatment groups, with at least five fimbriae per condition, per patient, in a 24-well plate containing alpha-MEM and 1% penicillin-streptomycin. […] Prior to fixation, fimbriae were labeled with 10 μM bromodeoxyurine (BrdU, Sigma-Aldrich) for 24 hours to denote proliferating cells. Fimbriae cultures were fixed (2% paraformaldehyde) followed by dehydration in ethanol and xylene, and embedment in paraffin.
Sections (5 μm) were cut and stained via hematoxylin and eosin for morphological analysis or immunohistochemistry was performed to localize proteins of interest as previously described (King et al. Endocr Relat Cancer. 2011. 18:627-42.; herein incorporated by reference in its entirety). Slides were rehydrated through an ethanol gradient, prior to 0.1M sodium citrate retrieval and peroxidase block. Tissues probed for BrdU were exposed to 4M HCl and 0.1M NaB4O7(Fisher Scientific) to denature DNA. All immunohistochemical reagents were obtained from Vector Laboratories, Inc (Burlingame, Calif.) unless otherwise stated. Tissues were blocked in 3% bovine serum albumin (Gemini, West Sacramento, Calif.)-TBS/10% serum and incubated with a primary antibody 1:50 acetylated tubulin (Cell Signaling, Cambridge, Mass.); 1:200 BrdU (AbCam, Cambridge, Mass.); 1:100 cytokeratin 8 (CK8, Developmental Studies Hybridoma Bank, Iowa City, Iowa); 1:50 p53 (Santa Cruz, Santa Cruz, Calif.); 1:100 PAX8 (Proteintech, Chicago, Ill.); 1:100 pH2AX (Cell Signaling); or 1:75 PR (Santa Cruz)) overnight at 4°. Tissues were washed in TBS-0.1% Tween and incubated with a secondary antibody (1:200), before being probed with ABC peroxidase standard, followed by detection with 3,3′-diaminobenzidine (DAB) and counterstained with hematoxylin.
Immunohistochemistry images were taken via a Nikon E600 microscope, DXM1200 digital camera and NIS Elements software (Nikon Instruments, Melville, N.Y.). For proliferation analysis, concurrent sections were stained for CK8 and BrdU. BrdU sections were imaged and epithelial cells (CK8 positive) were quantified for proliferation via ImageJ software (NIH, Bethesda, Md.). At least three fimbriae with 200 or more FTE were quantified for each treatment. […] Samples with p53 expression were quantified utilizing adjacent sections stained for the secretory cell marker PAX8 in a qualitative manner as described.

p53 stabilization in FTE = experiment: 3D human fimbriae culture: p53 immunohistochemistry; assay type: cell-based; conditions: 2 and 7 days treatment, n=8
Description: as §1
Sections (5 μm) were cut and stained via hematoxylin and eosin for morphological analysis or immunohistochemistry was performed to localize proteins of interest as previously described (King et al. Endocr Relat Cancer. 2011. 18:627-42.; herein incorporated by reference in its entirety). Slides were rehydrated through an ethanol gradient, prior to 0.1M sodium citrate retrieval and peroxidase block. […]
Immunohistochemistry images were taken via a Nikon E600 microscope, DXM1200 digital camera and NIS Elements software (Nikon Instruments, Melville, N.Y.). […] BrdU sections were imaged and epithelial cells (CK8 positive) were quantified for proliferation via ImageJ software (NIH, Bethesda, Md.). At least three fimbriae with 200 or more FTE were quantified for each treatment. Analysis of p53 staining was similar, with at least three fimbriae per treatment, per patient analyzed. Samples with p53 expression were quantified utilizing adjacent sections stained for the secretory cell marker PAX8 in a qualitative manner as described.

Stage 5b mouse follicles = system: Stage 5b mouse follicles
Description: Cisplatin (CDDP) and cyclophosphamide (CTX) were obtained from Sigma-Aldrich (St. Louis, Mo.) and used at final concentrations of: 0.2, 1, and 5 μM. Nalbuphine and Raclopride were obtained from the NIH Clinical Collection (South San Francisco, Calif.) and used at final concentrations of: 0.2, 1, and 5 μM. Corexit EC 9500A was obtained via a Material Transfer Agreement from Nalco (Sugar Land, Tex.). CE was used at final concentrations of: 5 ppm, 10 ppm, 25 ppm, 50 ppm, 75 ppm, 100 ppm, 125 ppm, 150 ppm, 200 ppm, 250 ppm, 300 ppm, 350 ppm and 400 ppm, which correspond to 4.75 mg/L, 9.5 mg/L, 23.75 mg/L, 47.5 mg/L, 71.25 mg/L, 95 mg/L, 118.75 mg/L, 142.5 mg/L, […], 237.5 mg/L, 285 mg/L, 332.5 mg/L and 380 mg/L.
All experiments were performed using CD-1 female mice (Harlan Laboratories, Indianapolis, Ind.) that were housed in a controlled barrier facility at Northwestern University's Center of Comparative Medicine under constant temperature, humidity and light (12 h light/12 h dark). Food and water were provided ad libitum. All animal experiments were approved by the Institutional Animal Care and Use Committee and were in accordance with National Institutes of Health Guidelines. For follicle isolation, ovaries were dissected from 14-15-day-old mice and cut into 4 pieces. The tissue was incubated for 1 hour in L15 media (Invitrogen, Carlsbad, Calif., USA) containing 2% Liberase™ (Roche, Indianapolis, Ind.) and 1% DNase I (Worthington, Lakewood, N.J.). The enzymatic digestion was quenched by rinsing follicles in αMEM Glutamax (Invitrogen) containing 1% Fetal Bovine Serum (FBS, Invitrogen, Carlsbad, Calif.) and 0.5% Pen-Strep (Mediatech, Herndon, Va.). Type 5b multilayer secondary follicles (140-175 μm in diameter) were manually collected and cultured individually in wells of a 96-well plate (Pedersen and Peters, 1968; herein incorporated by reference in its entirety).
Follicles were cultured at 37° C. in a humidified atmosphere of 5% CO2 in air for up to 6 days. All chemical exposures were initiated on day 2 of culture. Half of the culture media was replaced with fresh GM every other day and spent media was stored at −20° C. for use in steroid hormone assays. Follicles were imaged at each media change using a Leica DM IRB inverted microscope equipped with 4× and 20× objectives (Leica Microsystems, Heidelberg, Germany) to assess survival, morphology and growth. Live follicles were defined as those that contained an oocyte surrounded completely by somatic cells. […] The percent of surviving follicles was calculated as the number of live follicles out of the total number of follicles plated. Antral cavity formation was assessed morphologically and characterized by the differentiation of outer layers of mural granulosa cells and inner layers of cumulus granulosa cells surrounding the oocyte as well as the presence of a fluid-filled structure.

[2] = system: OVGP1 expression in human fallopian epithelium; experiment: OVGP1 immunoblot of cultured fallopian epithelium lysate; assay type: cell-based
Description: (§2) Human fallopian tissue was obtained from routine hysterectomies from women in their reproductive years (ages range from 26 to 50 years old) and who had not undergone exogenous hormonal treatment for at least three months prior to surgery. Informed consent was obtained from each patient and approval granted by the ethics committee of the Northwestern University. Human fallopian tissue was kept in the DMEM/F12 medium with 10% FBS on ice and processed within 24 hours. The tissue was washed with warm PBS solution two times before being transferred into warm dissection medium (Liebowitz 15 with 0.5% P/S and 10% FBS). After cleaning connective tissue from outside of the fallopian tissue, the fallopian tube was cut open and the inner epithelia layer was mechanically dissected using forceps. […] Tissue was cultured on 0.4 μm pore Millicell inserts (PICM03050, EMD Millipore Co, Billerica, Mass., USA) twelve-well plates with culture medium in a 37° C. and 5% CO2 incubator. Estrogen (E2) and progesterone (P4) used in tissue culture experiments were purchased from Sigma (St. Louis, Mo.).
(§3) Cultured human fallopian epithelia layers were homogenized with a minipestle in ice-cold lysis buffer (20 mM Tris-HCl, pH 8.0, 137 mM NaCl, 10% glycerol, 1% NP-40, 2 mM EDTA). Lysate normalized for protein content was loaded into NuPAGE 4-12% gradient Bis-Tris precast SDS-PAGE gels and transferred to a nitrocellulose membrane (Life Technologies, Carlsbad, Calif., USA). Blots were probed by polyclonal anti-OVGP1 antibody (LsBio, Cambridge, Mass.) overnight in 4° C. followed by anti-rabbit secondary antibody conjugated to horseradish peroxidase (Zymed, San Francisco, Calif.). Proteins were detected by ECL primer (GE HealthCare Life Sciences, Pittsburgh, Pa.) and exposed to X-ray film (Kodak, Rochester, N.Y.). The same blot was stripped using stripping buffer (Thermo Scientific, Hanover Park, Ill.) and re-probed with monoclonal anti-α-tubulin (Sigma, St. Louis, Mo.) followed by an anti-mouse secondary antibody conjugated to horseradish peroxidase. NIH ImageJ Imaging Software was used to quantify the density of western blot bands. Conditioned medium from fallopian epithelia cultures was collected and probed via western blot analysis using a polyclonal anti-hIGF1 antibody (abcam, Cambridge, Mass.). The blot was detected by the same method described above.

[3] = system: IGF1 secretion by human fallopian epithelium; experiment: hIGF1 immunoblot of fallopian epithelium conditioned medium; assay type: cell-based
Description: as §2, §3
Fallopian epithelia layers cultured on […] inserts were pre-cultured in the alpha-MEM with 0.3% BSA, ITS and 1% P/S medium for two days. Cell culture medium was collected for the glucose ELISA assay (abcam, Cambridge, Mass.). Medium was diluted 1:500 and ELISA was performed according to the protocol provided by the kit. […]

[4] = system: human fallopian tube epithelium; experiment: Fallopian epithelia cilia beating quantification; assay type: cell-based; conditions: 7 days culture; P4 added to E2
Description: Human fallopian tissue was obtained from routine hysterectomies from women in their reproductive years (ages range from 26 to 50 years old) and who had not undergone exogenous hormonal treatment for at least three months prior to surgery. Informed consent was obtained from each patient and approval granted by the ethics committee of the Northwestern University. Human fallopian tissue was kept in the DMEM/F12 medium with 10% FBS on ice and processed within 24 hours. The tissue was washed with warm PBS solution two times before being transferred into warm dissection medium (Liebowitz 15 with 0.5% P/S and 10% FBS). After cleaning connective tissue from outside of the fallopian tissue, the fallopian tube was cut open and the inner epithelia layer was mechanically dissected using forceps. […]
Fallopian epithelia layers were cultured in estradiol (E2) 1 nM, E2 1 nM+progesterone (P4) 10 nM, E2 0.1 nM+P4 50 nM or with solvent only negative control for 7 days. Cilia beating movies were acquired using an Andor Spinning Disk Confocal with 5 ms exposure time and 5 ms readout time. […] The Multiple Kymograph plugin for the NIH ImageJ software was used to quantify cilia beating frequency. In each movie, 8 clusters of cilia were picked for the cilia beating quantification.

endometrial cells = experiment: Cell survival Wst-1 assay in endometrial cells cultured in 2D; assay type: cell-based, human; conditions: 2D culture, 72 hours
[5] = 28 days stepwise E2 and P4 treatment, P4 in the presence of E2

Compound | FTE proliferation (percentage of total FTE cells, BrdU) ([1]; 7 days in culture) [%] | p53 stabilization (p53 stabilization in FTE) | follicle survival (Stage 5b mouse follicles; 1 μM, day 4 of culture) [%] | follicle survival (Stage 5b mouse follicles; 1 μM, day 6 of culture) [%] | follicle survival (Stage 5b mouse follicles; 5 μM, day 4 of culture) [%] | follicle survival (Stage 5b mouse follicles; 5 μM, day 6 of culture) [%] | also measured
OO [H2O2] | 2.2±0.5 | no factor notably induced p53 stabilization | – | – | – | – | FTE proliferation (percentage of total FTE cells, BrdU) ([1]; 2 days in culture): 4.0±1.1%
Insulin: insulin 5 μg/ml given via ITS supplement (insulin; transferrin; selenite) | 4.1±0.9 | no factor notably induced p53 stabilization | – | – | – | – | –
[NH2][Pt]([NH2])([Cl])[Cl] [CDDP, Cisplatin] | – | – | 76.31 | 58.38 | 47.83 | 12.56 | concentration at which complete release of the oocyte from the follicle was first observed (Stage 5b mouse follicles): 5000 nM
O=P1(N(CCCl)CCCl)NCCCO1 (centres unmarked) [CTX, cyclophosphamide] | – | – | 57.23 | 32.43 | 36.41 | 11.49 | follicle survival (Stage 5b mouse follicles; 0.2 μM, day 6 of culture (treated on day 2)): 71.8%; follicle morphology (Stage 5b mouse follicles; increasing concentrations (0.2, 1, 5 μM)): disorganized follicles with dark granulosa cells and little evidence of antral cavity formation; concentration at which complete release of the oocyte from the follicle was first observed (Stage 5b mouse follicles; most severe phenotype): 1000 nM
CC(=O)[C@H]1CC[C@H]2[C@@H]3CCC4=CC(=O)CC[C@]4(C)[C@H]3CC[C@]12C [P4, progesterone] | – | – | – | – | – | – | OVGP1 expression in the fallopian lysate ([2]; 7 days culture, P4 added to E2): suppressed; OVGP1 expression [2, 5]: suppressed; IGF1 secretion ([3]; 7 days culture, 1 nM E2, P4 added to E2): attenuated; IGF1 secretion [3, 5]: suppressed; cilia beating frequency (CBF) [4]: decreased
C[C@]12CC[C@H]3[C@@H](CCC4=CC(=O)CC[C@@]43C)[C@@H]1CC[C@@H]2O [testosterone] | – | – | – | – | – | – | toxicity on endometrial cells (cell survival) (endometrial cells): no toxicity
